Reference: patent publication US20230116114A1, “COMPOUNDS AND COMPOSITIONS FOR TREATING CNS DISORDERS” (Blue Oak Pharmaceuticals, Inc., priority 2020, published 2023)
Where a name gives a salt, the structure may show the parent alone.

Tested on: mice
Test: SmartCube in vivo neuropharmacological behavioral assay
Conditions: for minimal effective dose: Mus musculus, ip, 0.25 h, dose having 50% or more total activity in SmartCube, i.p., read-out: MED (minimal effective dose); for AD: antidepressant (percent probability) / AG: analgesic (percent probability) / AP: antipsychotic (percent probability) / AX: anxiolytic (percent probability) / CE: cognitive enhancer (percent probability) / HA: hallucinogenic (percent probability) / MS: mood stabilizer (percent probability) / PS (percent probability) / SD: sedative hypnotic (percent probability) / SE: side effects (percent probability) / UN: uncharacterized CNS activity (percent probability) / XG: anxiogenic (percent probability): SmartCube, i.p. 15 min before test, result at the MED
Experimental: The compounds were evaluated for their CNS related properties (e.g., the treatment, prevention or diagnosis of CNS or CNS-related disorders and/or amelioration of symptoms) using neuropharmacological screening methods described in S. L. Roberts et al., Front. Neurosci. 2011, 5:103 (hereinafter referred to as “Roberts,” the contents of which are incorporated herein by reference in their entirety).
According to Roberts, intact systems are useful in detecting improvement in disease-relevant endpoints, because psychiatric diseases generally result from disorders of cell-cell communication or circuitry. The endpoints are typically behavioral in nature, often requiring human observation and interpretation. In order to test multiple compounds for behavioral effects relevant to neurological and psychiatric diseases and disorders, PsychoGenics, Inc. (Paramus, N.J. “PGI”) developed SmartCube®, an automated system in which behaviors of compound-treated mice are captured by digital video and analyzed with computer algorithms to facilitate testing of multiple compounds for behavioral effects relevant to psychiatric disease. (D. Brunner et al., Drug Discov. Today 2002, 7:S107-S112; Alexandrov et al., Eur. J. Pharmacol. 2015, 753:127-134; the contents of each of which are incorporated herein by reference in their entirety).
The SmartCube® system is described in Example 2.2 of U.S. Pat. No. 9,758,529 and Example 289 of WIPO Publication No. WO2018/023070, the contents of each of which are incorporated herein by reference in their entirety.
According to the present disclosure, compounds identified may be evaluated using the SmartCube® system. The results of such analysis correlate certain patterns or combinations of behaviors to CNS effects along a percent probability scale of 0-100 where zero (0) reflects the limit of quantitation (LOQ).
The compounds of the present disclosure were evaluated for their CNS related properties (e.g., the treatment, prevention or diagnosis of CNS or CNS-related disorders and/or amelioration of symptoms) using neuropharmacological screening methods described in S. L. Roberts et al., Front. Neurosci. 2011, 5:103 (hereinafter referred to as “Roberts,” the contents of which are incorporated herein by reference in their entirety).
The SmartCube® system described herein was utilized to compare the behavioral signature of a test compound to a database of behavioral signatures obtained using a large set of diverse reference compounds (including but not limited to antipsychotics, anxiolytics, antidepressants and bipolar disorder medicine), thereby predicting the neuropharmacological effects of a test compound by similarity to major classes of compounds. It produces an activity signature indicating the probability that the activity of the test compound at the administered dose matches a given class of neuropharmacological agents. The test compound is simultaneously compared against multiple classes of agents; thus, a separate probability is generated for each behavioral effect measured (such as but not limited to anxiolytic activity and analgesic activity).
The compounds of the present disclosure were dissolved in a mixture of Pharmasolve™ (N-methyl-2-pyrrolidone (NMP)) and were injected i.p. 15 min. before the behavioral test. For each compound, injections were administered at different dose levels (e.g., 0.3, 1, 3, 10 and 30 mg per kg (mpk)). A compound's minimal effective dose (MED; see Table 3) is a measure of the compound's potency. The MED was defined as the dose (in mpk) having 50% or more total activity in SmartCube®. For each behavioral effect measured, results at the MED are presented. CNS activities of the compounds were recorded (see Table 2). In Table 1, a key to the percent probabilities (probability ×100) for each behavioral effect (“X”) are defined provided, where LOQ is the limit of quantification.

CO[C@H]1CC[C@H]2c3ccccc3[C@@H]1N2C(C)C (stereo in doubt) [Compound 28, 9-methoxy-12-(propan-2-yl)-12-azatricyclo[6.3.1.0^2,7]dodeca-2,4,6-triene hydrochloride]
+ (LOQ ≤ X < 5%): AP: antipsychotic (percent probability) | CE: cognitive enhancer (percent probability) | HA: hallucinogenic (percent probability) | MS: mood stabilizer (percent probability) | SD: sedative hypnotic (percent probability) | SE: side effects (percent probability) | XG: anxiogenic (percent probability)
10 to 30 mg/kg: minimal effective dose
+++ (25% ≤ X < 50%): UN: uncharacterized CNS activity (percent probability)
++ (5% ≤ X < 25%): AD: antidepressant (percent probability) | AG: analgesic (percent probability) | AX: anxiolytic (percent probability) | PS (percent probability)

CC[C@@H](C)N1C2CCCC1c1ccccc12 [Compound 25, 12-[(2R)-Butan-2-yl]-12-azatricyclo[6.3.1.0^2,7]dodeca-2,4,6-triene hydrochloride]
++++ (50% ≤ X < 100%): AD: antidepressant (percent probability)
+ (LOQ ≤ X < 5%): AG: analgesic (percent probability) | AP: antipsychotic (percent probability) | AX: anxiolytic (percent probability) | CE: cognitive enhancer (percent probability) | HA: hallucinogenic (percent probability) | MS: mood stabilizer (percent probability) | SD: sedative hypnotic (percent probability) | SE: side effects (percent probability) | UN: uncharacterized CNS activity (percent probability) | XG: anxiogenic (percent probability)
1 to 10 mg/kg: minimal effective dose
++ (5% ≤ X < 25%): PS (percent probability)

CCC(C)N1C2CCCC1c1ccccc12 (centres unmarked) [Compound 12, 12-(Butan-2-yl)-12-azatricyclo[6.3.1.0^2,7]dodeca-2,4,6-triene]
+++ (25% ≤ X < 50%): UN: uncharacterized CNS activity (percent probability)
1 to 10 mg/kg: minimal effective dose
++ (5% ≤ X < 25%): AD: antidepressant (percent probability) | AX: anxiolytic (percent probability)
+ (LOQ ≤ X < 5%): AG: analgesic (percent probability) | AP: antipsychotic (percent probability) | CE: cognitive enhancer (percent probability) | HA: hallucinogenic (percent probability) | MS: mood stabilizer (percent probability) | PS (percent probability) | SD: sedative hypnotic (percent probability) | SE: side effects (percent probability) | XG: anxiogenic (percent probability)

CC(C)N1C2CCCC1c1ccccc12 [Compound 2, 12-(Propan-2-yl)-12-azatricyclo[6.3.1.0^2,7]dodeca-2,4,6-triene]
1 to 10 mg/kg: minimal effective dose
++ (5% ≤ X < 25%): AD: antidepressant (percent probability) | AG: analgesic (percent probability)
+ (LOQ ≤ X < 5%): AP: antipsychotic (percent probability) | AX: anxiolytic (percent probability) | CE: cognitive enhancer (percent probability) | HA: hallucinogenic (percent probability) | MS: mood stabilizer (percent probability) | PS (percent probability) | SD: sedative hypnotic (percent probability) | SE: side effects (percent probability) | XG: anxiogenic (percent probability)
+++ (25% ≤ X < 50%): UN: uncharacterized CNS activity (percent probability)

CC(C)C(C)N1C2CCCC1c1ccccc12 (centres unmarked) [Compound 22, 12-(3-Methylbutan-2-yl)-12-azatricyclo[6.3.1.0^2,7]dodeca-2,4,6-triene hydrochloride]
1 to 10 mg/kg: minimal effective dose
++ (5% ≤ X < 25%): AD: antidepressant (percent probability)
+ (LOQ ≤ X < 5%): AG: analgesic (percent probability) | AP: antipsychotic (percent probability) | AX: anxiolytic (percent probability) | CE: cognitive enhancer (percent probability) | HA: hallucinogenic (percent probability) | MS: mood stabilizer (percent probability) | PS (percent probability) | SD: sedative hypnotic (percent probability) | SE: side effects (percent probability) | XG: anxiogenic (percent probability)
++++ (50% ≤ X < 100%): UN: uncharacterized CNS activity (percent probability)

CC1CC2c3ccccc3C(C1)N2C1CC1 (centres unmarked) [Compound 38, 12-azatricyclo[6.3.1.0^2,7]dodeca-2,4,6-trien-10-yl}methylium hydrochloride]
10 to 30 mg/kg: minimal effective dose
++++ (50% ≤ X < 100%): AD: antidepressant (percent probability)
++ (5% ≤ X < 25%): CE: cognitive enhancer (percent probability) | HA: hallucinogenic (percent probability)
+ (LOQ ≤ X < 5%): AG: analgesic (percent probability) | AP: antipsychotic (percent probability) | AX: anxiolytic (percent probability) | MS: mood stabilizer (percent probability) | PS (percent probability) | SD: sedative hypnotic (percent probability) | SE: side effects (percent probability) | UN: uncharacterized CNS activity (percent probability) | XG: anxiogenic (percent probability)

CO[C@@H]1CC[C@H]2c3ccccc3[C@@H]1N2C(C)C (stereo in doubt) [Compound 34, 9-Methoxy-12-(propan-2-yl)-12-azatricyclo[6.3.1.0^2,7]dodeca-2,4,6-triene hydrochloride]
++ (5% ≤ X < 25%): AD: antidepressant (percent probability) | AX: anxiolytic (percent probability) | UN: uncharacterized CNS activity (percent probability)
+ (LOQ ≤ X < 5%): AG: analgesic (percent probability) | AP: antipsychotic (percent probability) | CE: cognitive enhancer (percent probability) | HA: hallucinogenic (percent probability) | MS: mood stabilizer (percent probability) | PS (percent probability) | SD: sedative hypnotic (percent probability) | SE: side effects (percent probability) | XG: anxiogenic (percent probability)
10 to 30 mg/kg: minimal effective dose

COCC(C)N1C2CCCC1c1ccccc12 (centres unmarked) [Compound 18, 12-(1-Methoxypropan-2-yl)-12-azatricyclo[6.3.1.0^2,7]dodeca-2,4,6-triene]
10 to 30 mg/kg: minimal effective dose
++ (5% ≤ X < 25%): AX: anxiolytic (percent probability)
++++ (50% ≤ X < 100%): AD: antidepressant (percent probability)
+ (LOQ ≤ X < 5%): AG: analgesic (percent probability) | AP: antipsychotic (percent probability) | CE: cognitive enhancer (percent probability) | HA: hallucinogenic (percent probability) | MS: mood stabilizer (percent probability) | PS (percent probability) | SD: sedative hypnotic (percent probability) | SE: side effects (percent probability) | UN: uncharacterized CNS activity (percent probability) | XG: anxiogenic (percent probability)
